Source: article doi:10.1101/2024.08.19.608619, “Discovery of potent SARS-CoV-2 nsp3 macrodomain inhibitors uncovers lack of translation to cellular antiviral response” (bioRxiv, 2024)
Like-named read-outs stand apart in the source and are kept apart here.

Columns and labels:
SARS-CoV-2 nsp3-mac1 [1] = biological target: T1, SARS-CoV-2 nsp3-mac1 (Severe acute respiratory syndrome coronavirus 2, UniProt P0DTD1); experiment: biochemical; type: biochemical; conditions: SARS-CoV-2 nsp3 macrodomain TR-FRET single point, concentration 50.0 uM
SARS-CoV-2 nsp3-mac1 [2] = biological target: T1, SARS-CoV-2 nsp3-mac1; experiment: biochemical; parameters: SARS-CoV-2 nsp3 macrodomain TR-FRET single point, per cent inhibition, n=2

SMILES	perc_inhibition_mean (SARS-CoV-2 nsp3-mac1 [1]) [%]	other results
O=C(Cc1ccon1)Nc1ncnc2[nH]cnc12 [ASAP-0000102]	-1.615	inhibition at 50 µM (SARS-CoV-2 nsp3-mac1 [2]; read-out: perc_inhibition_mean, batch_name=ASAP-0000102-001): -1.61%
Cc1ncc(NCc2ncn(C)c2Cl)cc1C(N)=O [ASAP-0000103]	2.409	inhibition at 50 µM (SARS-CoV-2 nsp3-mac1 [2]; read-out: perc_inhibition_mean, batch_name=ASAP-0000103-001): 2.41%
Cc1ncc(NCc2cc3n(n2)CCOC3)cc1C(N)=O [ASAP-0000104]	0.46	inhibition at 50 µM (SARS-CoV-2 nsp3-mac1 [2]; read-out: perc_inhibition_mean, batch_name=ASAP-0000104-001): 0.46%
O=S(=O)(NC[C@@H]1CCCCO1)c1cn2c(n1)CCCC2 [ASAP-0000105]	-5.386	inhibition at 50 µM (SARS-CoV-2 nsp3-mac1 [2]; read-out: perc_inhibition_mean, batch_name=ASAP-0000105-001): -5.39%
Cc1cc(NCc2csc(C)n2)ncn1 [ASAP-0000106]	-4.644	inhibition at 50 µM (SARS-CoV-2 nsp3-mac1 [2]; read-out: perc_inhibition_mean, batch_name=ASAP-0000106-001): -4.64%
COc1ccccc1CN(C[C@@H]1CCCO1)c1ncnc2[nH]ccc12 [ASAP-0000107]	4.74	inhibition at 50 µM (SARS-CoV-2 nsp3-mac1 [2]; read-out: perc_inhibition_mean, batch_name=ASAP-0000107-001): 4.74%
Cc1cccc([C@@H]2CCCN2c2ncnc3[nH]ccc23)n1 [ASAP-0000108]	0.182	inhibition at 50 µM (SARS-CoV-2 nsp3-mac1 [2]; read-out: perc_inhibition_mean, batch_name=ASAP-0000108-001): 0.182%
CC(=O)Nc1ccc(S(=O)(=O)NNc2ncnc3sccc23)cc1 [ASAP-0000109]	5.363	inhibition at 50 µM (SARS-CoV-2 nsp3-mac1 [2]; read-out: perc_inhibition_mean, batch_name=ASAP-0000109-001): 5.36%
Cc1cccc(Cl)c1-n1sc(=O)n(CC2CC2)c1=O [ASAP-0000110]	51.933	inhibition at 50 µM (SARS-CoV-2 nsp3-mac1 [2]; read-out: perc_inhibition_mean, batch_name=ASAP-0000110-001): 51.9%
COc1cc(OC)cc(C(=O)N(CCC(=O)N2CCNCC2)Cc2cccc(Cl)c2)c1 [ASAP-0000111]	-4.529	inhibition at 50 µM (SARS-CoV-2 nsp3-mac1 [2]; read-out: perc_inhibition_mean, batch_name=ASAP-0000111-001): -4.53%
CN(c1ncnc2[nH]ccc12)[C@H]1CCN(S(C)(=O)=O)C1 [ASAP-0000112]	-0.371	inhibition at 50 µM (SARS-CoV-2 nsp3-mac1 [2]; read-out: perc_inhibition_mean, batch_name=ASAP-0000112-001): -0.371%
Cc1nn(C)c(NCc2nc(CO)cs2)c1C#N [ASAP-0000113]	2.1	inhibition at 50 µM (SARS-CoV-2 nsp3-mac1 [2]; read-out: perc_inhibition_mean, batch_name=ASAP-0000113-001): 2.1%
O=C(CCCc1cccnc1)Nc1cnc2[nH]ncc2c1 [ASAP-0000114]	-3.651	inhibition at 50 µM (SARS-CoV-2 nsp3-mac1 [2]; read-out: perc_inhibition_mean, batch_name=ASAP-0000114-001): -3.65%
CNC(=O)c1ccnc(NC(=O)c2ccc(N3CCOCC3)cc2)c1 [ASAP-0000115]	-12.336	inhibition at 50 µM (SARS-CoV-2 nsp3-mac1 [2]; read-out: perc_inhibition_mean, batch_name=ASAP-0000115-001): -12.3%
Cc1noc(CCCNC(=O)c2ncnc3[nH]ccc23)n1 [ASAP-0000116]	-5.133	inhibition at 50 µM (SARS-CoV-2 nsp3-mac1 [2]; read-out: perc_inhibition_mean, batch_name=ASAP-0000116-001): -5.13%
COCc1cc(CNc2nc3[nH]cnc3c(=O)[nH]2)on1 [ASAP-0000117]	2.984	inhibition at 50 µM (SARS-CoV-2 nsp3-mac1 [2]; read-out: perc_inhibition_mean, batch_name=ASAP-0000117-001): 2.98%
Cc1cc(NCc2cnc3c(c2)NC(=O)CO3)cnc1C [ASAP-0000118]	4.531	inhibition at 50 µM (SARS-CoV-2 nsp3-mac1 [2]; read-out: perc_inhibition_mean, batch_name=ASAP-0000118-001): 4.53%
Cn1ncc2ncnc(NCc3ncccc3O)c21 [ASAP-0000119]	-2.547	inhibition at 50 µM (SARS-CoV-2 nsp3-mac1 [2]; read-out: perc_inhibition_mean, batch_name=ASAP-0000119-001): -2.55%
O=C(OCc1ncccc1Cl)c1ncnc2[nH]ccc12 [ASAP-0000120]	5.063	inhibition at 50 µM (SARS-CoV-2 nsp3-mac1 [2]; read-out: perc_inhibition_mean, batch_name=ASAP-0000120-001): 5.06%
CC(C)n1ncnc1CNc1cc2c(=O)nc[nH]c2cn1 [ASAP-0000121]	-1.486	inhibition at 50 µM (SARS-CoV-2 nsp3-mac1 [2]; read-out: perc_inhibition_mean, batch_name=ASAP-0000121-001): -1.49%
Cc1cncc(NCc2csc(-c3ccccn3)n2)c1 [ASAP-0000122]	-5.024	inhibition at 50 µM (SARS-CoV-2 nsp3-mac1 [2]; read-out: perc_inhibition_mean, batch_name=ASAP-0000122-001): -5.02%
c1ccc(-c2nc(CNc3cccnc3)cs2)nc1 [ASAP-0000123]	-9.865	inhibition at 50 µM (SARS-CoV-2 nsp3-mac1 [2]; read-out: perc_inhibition_mean, batch_name=ASAP-0000123-001): -9.87%
Cc1cc(NCc2ncccc2O)ncn1 [ASAP-0000124]	-3.335	inhibition at 50 µM (SARS-CoV-2 nsp3-mac1 [2]; read-out: perc_inhibition_mean, batch_name=ASAP-0000124-001): -3.33%
